Experimental data published in ChEMBL document CHEMBL1152824, “A novel insertion sequence, ISPA26, in oprD of Pseudomonas aeruginosa is associated with carbapenem resistance” (2007).
Values after ≈ are worked out from the molar mass of the structure shown.

Columns and labels:
[1] = test system: Pseudomonas aeruginosa; experiment: Antibacterial activity against Pseudomonas aeruginosa blood isolate 1 carrying insertion sequence ISPa26 by disk susceptibility test; format: functional
[2] = test system: Pseudomonas aeruginosa; experiment: Antibacterial activity against Pseudomonas aeruginosa pus isolate 6 carrying insertion sequence ISPa26 by disk susceptibility test; format: functional
[3] = test system: Pseudomonas aeruginosa; experiment: Antibacterial activity against Pseudomonas aeruginosa tracheal aspirate isolate 7 carrying insertion sequence ISPa26 by disk susceptibility test; format: functional
[4] = test system: Pseudomonas aeruginosa; experiment: Antibacterial activity against Pseudomonas aeruginosa tracheal aspirate isolate 8 carrying insertion sequence ISPa26 inserted into oprD gene by disk susceptibility test; format: functional
[5] = test system: Pseudomonas aeruginosa; experiment: Antibacterial activity against Pseudomonas aeruginosa tracheal aspirate isolate 12 carrying insertion sequence ISPa26 by disk susceptibility test; format: functional
[6] = test system: Pseudomonas aeruginosa; experiment: Antibacterial activity against Pseudomonas aeruginosa cystic fibrosis sputum isolate 286 carrying insertion sequence ISPa26 by disk susceptibility test; format: functional
[7] = test system: Pseudomonas aeruginosa; experiment: microbe, parasite or virus in culture
Description: Antibacterial activity against Pseudomonas aeruginosa cystic fibrosis sputum isolate 529 carrying insertion sequence ISPa26 by disk susceptibility test

| Structure (SMILES) | MIC [1] [µg/mL] | MIC [2] [µg/mL] | MIC [3] [µg/mL] | MIC [4] [µg/mL] | MIC [5] [µg/mL] | MIC [6] [µg/mL] | MIC [7] [µg/mL] |
| --- | --- | --- | --- | --- | --- | --- | --- |
| C[C@@H](O)[C@H]1C(=O)N2C(C(=O)O)=C(S[C@@H]3CN[C@H](C(=O)N(C)C)C3)[C@H](C)[C@H]12 [MEROPENEM] | > 32 | 6 (≈ 15.6 µM) | 6 (≈ 15.6 µM) | > 32 | 3 (≈ 7.82 µM) | > 32 | 2 (≈ 5.22 µM) |
| C[C@@H](O)[C@H]1C(=O)N2C(C(=O)O)=C(SCCNC=N)C[C@H]12 [IMIPENEM ANHYDROUS] | > 32 | > 32 | > 32 | > 32 | 2 (≈ 6.68 µM) | > 32 | 1 (≈ 3.34 µM) |
